{
  "source": "patent US20090298838A1",
  "about": "“Method for Determination of Effective Dose of Methotrexate” (StaGen Co., Ltd., priority 2005, published 2009)",
  "key": {"[1]": {"system": "patients suffering from rheumatoid arthritis", "assay": "Relationship between genotype of A1298C polymorphism in the MTHFR gene and dose of methotrexate 12 months after start of administration (157 patients)", "assay_type": "in vivo, human", "details": "for Risk ratio of high dose: high dose = more than 6 mg/week at 12 months", "description": "Target patients were 157 patients (M/F=24/133) suffering from rheumatoid arthritis who were attending to Institute of Rheumatology Tokyo Women's Medical University Hospital. All of those patients were different from patients examined in Non-Patent Document 3.\nExaminations were performed on genotypes of A1298C in the MTHFR gene in these 157 patients suffering from rheumatoid arthritis and doses of methotrexate to the patients 12 months after a start of administration.\nGenomic DNA was extracted from leukocytes in peripheral blood of each patient suffering from rheumatoid arthritis. From the genomic DNA, a DNA region including A1298C in the MTHFR gene was amplified by PCR. The primers shown in SEQ ID NO: 1 and SEQ ID NO: 2 in Sequence Listing were used for the amplification.\nThe DNA amplification reaction was performed in a system of a total volume of 50 μl, which contains 5 μl of 10×PCR Buffer (Applied Biosystem, Japan), 0.5 μl (=2.5 U) of AmpliTaq Gold (Applied Biosystem, Japan), 5.01 of 8 mM dNTP (200 μM of each dNTP), and 1 μl of each 10 pmole primer (0.2 μM of each primer). Conditions of the PCR included: totally 34 cycles of denaturing at 95° C. for 10 minutes, of reactions each at 95° C. for 30 seconds, at 65° C. for 30 seconds, and at 72° C. for 60 seconds; and final extension at 72° C. for 7 minutes.\nThe products amplified by the PCR were cut by the restriction enzyme Fnu4I and subjected to electrophoresis to examine whether they were cut or not, to thereby determine the genotypes (A/A, A/C, C/C) in each patient.\nAlleles and genotypes in group were compared by using Fisher's exact test for statistic analysis and Chi-square test, and Excel was used as a statistical software.\nIn the present Example, a dose of more than 6 mg/week 12 months after the start of the administration of the methotrexate was defined as a high dose, and otherwise defined as a low dose. Individuals were classified into A/A, A/C, and C/C based on the genotypes of A1298C polymorphism in the MTHFR and summarized to a relationship between the genotypes and the high dose. As shown in FIG. 1 and Table 2, a ratio of the high dose of the methotrexate was high in the order of A/A>A/C>C/C in the genotypes. […] A possibility that patients having the A/A genotype are required to have a high dose of the methotrexate is 49%. Compared with this, possibilities of patients having the A/C genotype and patients having the C/C genotype were 28% and 13%, respectively (Table 2 and FIG. 1). There were a difference of 1.7 (risk ratio, P<0.05) between A/A and A/C, and a difference of 3.8 (risk ratio, P<0.05) between A/A and C/C.\nTable 3 and FIG. 2 show a relationship between the A/A genotype of A1298C polymorphism in the MTHFR and a dose and a relationship between the other genotypes (A/C and C/C) and a dose in all the subjects of the patients suffering from the rheumatoid arthritis. In the present reference example, the dose of more than 6 mg/week 12 months after the start of the administration of the methotrexate was defined as a high dose, and otherwise defined as a low dose. Genotypes of A1298C polymorphism in the MTHFR were classified into A/A and other genotype and summarized to a relationship between the genotypes and the high dose."}, "[2]": {"system": "patients suffering from the rheumatoid arthritis", "details": "A/A genotype (68 individuals) versus A/C and C/C (31 individuals); administration for at least 3 months; cited from earlier work"}},
  "note": "Marks after values point to notes of the source that are not given here.",
  "data": [
    {"compound": "CN(Cc1cnc2nc(N)nc(N)c2n1)c1ccc(C(=O)N[C@@H](CCC(=O)O)C(=O)O)cc1", "note": "[methotrexate]", "values": [
      {"measurement": "Ratio of high dose", "setting": "[1]; A/A genotype, final dose more than 6 mg/week 12 months after start of administration", "result": "0.485*"},
      {"measurement": "Ratio of high dose", "setting": "[1]; A/A genotype, final dose more than 6 mg/week 12 months after start of administration, listed as MTX", "result": "0.485*,**"},
      {"measurement": "Possibility that patients are required to have a high dose", "setting": "[1]; A/A genotype, more than 6 mg/week at 12 months", "result": 49, "unit": "%"},
      {"measurement": "Risk ratio of high dose", "setting": "[1]; A/A versus A/C genotype", "result": 1.7},
      {"measurement": "Risk ratio of high dose", "setting": "[1]; A/A versus C/C genotype", "result": 3.8},
      {"measurement": "Ratio of high dose", "setting": "[1]; A/C + C/C genotypes, dose more than 6 mg/week 12 months after start of administration", "result": "0.259}"},
      {"measurement": "Ratio of high dose", "setting": "[1]; A/C genotype, final dose more than 6 mg/week 12 months after start of administration", "result": "0.283*"},
      {"measurement": "Possibility that patients are required to have a high dose", "setting": "[1]; A/C genotype, more than 6 mg/week at 12 months", "result": 28, "unit": "%"},
      {"measurement": "Ratio of high dose", "setting": "[1]; C/C genotype, final dose more than 6 mg/week 12 months after start of administration", "result": "0.125**"},
      {"measurement": "Possibility that patients are required to have a high dose", "setting": "[1]; C/C genotype, more than 6 mg/week at 12 months", "result": 13, "unit": "%"},
      {"measurement": "Ratio of high dose", "setting": "[1]; Total, all genotypes (157 persons), final dose more than 6 mg/week 12 months after start of administration", "result": 0.408},
      {"measurement": "Individuals classified to a high dose", "setting": "[1]; either A/C or C/C genotype, more than 6 mg/week at 12 months", "result": 26, "unit": "%"},
      {"measurement": "Proportion ratio of patients administered more than 5 mg/week", "setting": "[2]", "result": 1.78}
    ]}
  ]
}
